The values that follow come from patent US8987195B2 (priority 2012, dated 2015).

The test system of one experiment is HCV genotype 1b replicon. Briefly: HCV replicon assay, genotype 1b replicon EC50. It counts as cell-based, Hepatitis C virus. The note with it: Hepatitis C virus, HCV replicon, genotype 1b, read-out: EC50 [gt-1b]. The procedure, abridged: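 Cells harbouring a stable replicon are grown under G418 selection, then plated with test compound in G418-free medium for 24-48 hours. After washing and lysis, RNA or luciferase signal is measured and expressed as percent of DMSO control to give EC50.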
For orientation: In antiviral work, replicon cells carry a viral genome segment that copies itself.

The target of experiment [1] is HCV NS3/4A protease genotype 1b (Hepatitis C virus genotype 1b, UniProt P26663). Briefly: HCV NS3/4A protease time-resolved fluorescence (TRF) assay, Ki against genotype 1b. The note with it: IC50 [gt-1b], NS3/4A protease TRF assay, genotype 1b enzyme 0.2 nM. The class given is biochemical. The procedure, abridged:
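Enzyme was pre-incubated 30 min with inhibitor in HEPES pH 7.5 buffer (150 mM NaCl, 15% glycerol, 10 mM DTT). Reaction ran 2.5 h at room temperature with 25 nM europium TRF peptide substrate, read at ex 340/em 615 nm. Enzyme levels: 0.2 nM (1b), 0.4 nM (A156T), 0.025 nM (3a). Ki came from four-parameter IC50 via IC50=Ki(1+[S]/KM).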

Each structure is given as a SMILES string. Where two headings read alike, the source gives them in different places.

As a reminder, the EC50 is the concentration at which the effect is half-maximal. By IC50 is commonly meant the concentration at which inhibition is half-maximal.

In the case of `Cc1nc2cc(F)c(F)cc2c2c1O[C@]1(CC2)C[C@H]2C(=O)N[C@]3(C(=O)NS(=O)(=O)C4(C)CC4)C[C@H]3/C=C\CCCCC[C@H](NC(=O)OC(C)(C)C(F)(F)F)C(=O)N2C1` [Example 381, 1,1,1-trifluoro-2-methylpropan-2-yl [(2R,6S,12Z,13aS,14aR,16aS)-8′,9′-difluoro-5′-methyl-14a-{[(1-methylcyclopropyl)sulfonyl]carbamoyl}-5,16-dioxo-1,1′,2′,5,6,7,8,9,10,11,13a,14,14a,15,16,16a-hexadecahydrospiro[cyclopropa[e]pyrrolo[1,2-a][1,4]diazacyclopentadecine-2,3′-pyrano[2,3-c]quinolin]-6-yl]carbamate], the EC50 in the experiment on HCV genotype 1b replicon is 6740 pM. In experiment [1], half-maximal inhibition (IC50) was put at 40 pM.

With `CC(C)COC(=O)N[C@H]1CCCCC/C=C\[C@@H]2C[C@@]2(C(=O)NS(=O)(=O)C2(C)CC2)NC(=O)[C@@H]2C[C@]3(CCc4c(c(C(F)(F)F)nc5ccc(Cl)cc45)O3)CN2C1=O` [Example 383, 2-methylpropyl [(2R,6S,12Z,13aS,14aR,16aS)-9′-chloro-14a-{[(1-methylcyclopropyl)sulfonyl]carbamoyl}-5,16-dioxo-5′-(trifluoromethyl)-1,1′,2′,5,6,7,8,9,10,11,13a,14,14a,15,16,16a-hexadecahydrospiro[cyclopropa[e]pyrrolo[1,2-a][1,4]diazacyclopentadecine-2,3′-pyrano[2,3-c]quinolin]-6-yl]carbamate], the EC50 in the experiment with HCV genotype 1b replicon is 38300 pM. In addition, in experiment [1], the IC50 worked out at 24 pM.

As to `CC1(S(=O)(=O)NC(=O)[C@@]23C[C@H]2/C=C\CCCCC[C@H](NC(=O)OC2CCCC2)C(=O)N2C[C@@]4(CCc5c(c(C(F)(F)F)nc6ccc(Cl)cc56)O4)C[C@H]2C(=O)N3)CC1` [Example 384, cyclopentyl [(2R,6S,12Z,13aS,14aR,16aS)-9′-chloro-14a-{[(1-methylcyclopropyl)sulfonyl]carbamoyl}-5,16-dioxo-5′-(trifluoromethyl)-1,1′,2′,5,6,7,8,9,10,11,13a,14,14a,15,16,16a-hexadecahydrospiro[cyclopropa[e]pyrrolo[1,2-a][1,4]diazacyclopentadecine-2,3′-pyrano[2,3-c]quinolin]-6-yl]carbamate], the EC50 in the experiment with HCV genotype 1b replicon came out at 19800 pM. The compound further showed an IC50 in experiment [1] of 23 pM.

As for `CC(C)OC(=O)N[C@H]1CCCCC/C=C\[C@@H]2C[C@@]2(C(=O)NS(=O)(=O)C2(C)CC2)NC(=O)[C@@H]2C[C@]3(CCc4c(c(C(F)(F)F)nc5ccc(Cl)cc45)O3)CN2C1=O` [Example 385, propan-2-yl [(2R,6S,12Z,13aS,14aR,16aS)-9′-chloro-14a-{[(1-methylcyclopropyl)sulfonyl]carbamoyl}-5,16-dioxo-5′-(trifluoromethyl)-1,1′,2′,5,6,7,8,9,10,11,13a,14,14a,15,16,16a-hexadecahydrospiro[cyclopropa[e]pyrrolo[1,2-a][1,4]diazacyclopentadecine-2,3′-pyrano[2,3-c]quinolin]-6-yl]carbamate], the EC50 in the experiment on HCV genotype 1b replicon came out at 6790 pM. The compound also displayed an IC50 in experiment [1] of 17 pM.

As to `CC(C)(C)COC(=O)N[C@H]1CCCCC/C=C\[C@@H]2C[C@@]2(C(=O)NS(=O)(=O)C2(C)CC2)NC(=O)[C@@H]2C[C@]3(CCc4c(c(C(F)(F)F)nc5ccc(Cl)cc45)O3)CN2C1=O` [Example 386, 2,2-dimethylpropyl [(2R,6S,12Z,13aS,14aR,16aS)-9′-chloro-14a-{[(1-methylcyclopropyl)sulfonyl]carbamoyl}-5,16-dioxo-5′-(trifluoromethyl)-1,1′,2′,5,6,7,8,9,10,11,13a,14,14a,15,16,16a-hexadecahydrospiro[cyclopropa[e]pyrrolo[1,2-a][1,4]diazacyclopentadecine-2,3′-pyrano[2,3-c]quinolin]-6-yl]carbamate], the EC50 in the experiment on HCV genotype 1b replicon came out at 49600 pM. The IC50 in experiment [1] is 29 pM.

On to `CC(C)(OC(=O)N[C@H]1CCCCC/C=C\[C@@H]2C[C@@]2(C(=O)NS(=O)(=O)C2(C)CC2)NC(=O)[C@@H]2C[C@]3(CCc4c(c(C(F)(F)F)nc5ccc(Cl)cc45)O3)CN2C1=O)C(F)(F)F` [Example 387, 1,1,1-trifluoro-2-methylpropan-2-yl [(2R,6S,12Z,13aS,14aR,16aS)-9′-chloro-14a-{[(1-methylcyclopropyl)sulfonyl]carbamoyl}-5,16-dioxo-5′-(trifluoromethyl)-1,1′,2′,5,6,7,8,9,10,11,13a,14,14a,15,16,16a-hexadecahydrospiro[cyclopropa[e]pyrrolo[1,2-a][1,4]diazacyclopentadecine-2,3′-pyrano[2,3-c]quinolin]-6-yl]carbamate], for which the concentration giving a half-maximal response (EC50) with HCV genotype 1b replicon was determined as 20100 pM. In experiment [1], the IC50 is 38 pM.

Regarding `COc1ccc2nc(C(C)C)c3c(c2c1)[C@H](F)C[C@]1(C[C@H]2C(=O)N[C@]4(C(=O)NS(=O)(=O)C5(C)CC5)C[C@H]4/C=C\CCCCC[C@H](NC(=O)OCC(C)(C)C)C(=O)N2C1)O3` [Example 388, 2,2-dimethylpropyl [(1′R,2S,6S,12Z,13aS,14aR,16aS)-1′-fluoro-9′-methoxy-14a-{[(1-methylcyclopropyl)sulfonyl]carbamoyl}-5,16-dioxo-5′-(propan-2-yl)-1,1′,2′,5,6,7,8,9,10,11,13a,14,14a,15,16,16a-hexadecahydrospiro[cyclopropa[e]pyrrolo[1,2-a][1,4]diazacyclopentadecine-2,3′-pyrano[2,3-c]quinolin]-6-yl]carbamate], in the experiment with HCV genotype 1b replicon, the EC50 was 1310 pM. The same compound gave an IC50 in experiment [1] of 28 pM.

With `Cc1ccc2nc(C(F)(F)F)c3c(c2c1)CC[C@]1(C[C@H]2C(=O)N[C@]4(C(=O)NS(=O)(=O)C5(C)CC5)C[C@H]4/C=C\CCCCC[C@H](NC(=O)OC(C)(C)C)C(=O)N2C1)O3` [Example 389, tert-butyl [(2R,6S,12Z,13aS,14aR,16aS)-9′-methyl-14a-{[(1-methylcyclopropyl)sulfonyl]carbamoyl}-5,16-dioxo-5′-(trifluoromethyl)-1,1′,2′,5,6,7,8,9,10,11,13a,14,14a,15,16,16a-hexadecahydrospiro[cyclopropa[e]pyrrolo[1,2-a][1,4]diazacyclopentadecine-2,3′-pyrano[2,3-c]quinolin]-6-yl]carbamate], the EC50 with HCV genotype 1b replicon is 2610 pM. Moreover, in experiment [1], it took 11 pM to reach half-maximal inhibition (IC50).

On to `Cc1ccc2nc(C(F)(F)F)c3c(c2c1)CC[C@]1(C[C@H]2C(=O)N[C@]4(C(=O)NS(=O)(=O)C5(C)CC5)C[C@H]4/C=C\CCCCC[C@H](NC(=O)OCC(C)C)C(=O)N2C1)O3` [Example 390, 2-methylpropyl [(2R,6S,12Z,13aS,14aR,16aS)-9′-methyl-14a-{[(1-methylcyclopropyl)sulfonyl]carbamoyl}-5,16-dioxo-5′-(trifluoromethyl)-1,1′,2′,5,6,7,8,9,10,11,13a,14,14a,15,16,16a-hexadecahydrospiro[cyclopropa[e]pyrrolo[1,2-a][1,4]diazacyclopentadecine-2,3′-pyrano[2,3-c]quinolin]-6-yl]carbamate], for which the EC50 in the experiment on HCV genotype 1b replicon was 15500 pM. Moreover, the IC50 in experiment [1] came out at 15 pM.

In the case of `[2H]C([2H])(F)Oc1ccc2nc(C)c3c(c2c1)[C@H](F)C[C@]1(C[C@H]2C(=O)N[C@]4(C(=O)NS(=O)(=O)C5(C)CC5)C[C@H]4/C=C\CCCCC[C@H](NC(=O)OCC(C)C)C(=O)N2C1)O3` [Example 402, 2-methylpropyl [(1′R,2S,6S,12Z,13aS,14aR,16aS)-1′-fluoro-9′-{[fluoro(^2H2)methyl]oxy}-5′-methyl-14a-{[(1-methylcyclopropyl)sulfonyl]carbamoyl}-5,16-dioxo-1,1′,2′,5,6,7,8,9,10,11,13a,14,14a,15,16,16a-hexadecahydrospiro[cyclopropa[e]pyrrolo[1,2-a][1,4]diazacyclopentadecine-2,3′-pyrano[2,3-c]quinolin]-6-yl]carbamate], in the experiment on HCV genotype 1b replicon (K+ salt), the EC50 was 2270 pM. Moreover, the IC50 in experiment [1] (K+ salt) came out at 11 pM.

With `[2H]C([2H])(F)Oc1ccc2nc(C)c3c(c2c1)[C@H](F)C[C@]1(C[C@H]2C(=O)N[C@]4(C(=O)NS(=O)(=O)C5(C)CC5)C[C@H]4/C=C\CCCCC[C@H](NC(=O)OCC(C)(C)C)C(=O)N2C1)O3` [Example 403, 2,2-dimethylpropyl [(1′R,2S,6S,12Z,13aS,14aR,16aS)-1′-fluoro-9′-{[fluoro(^2H2)methyl]oxy}-5′-methyl-14a-{[(1-methylcyclopropyl)sulfonyl]carbamoyl}-5,16-dioxo-1,1′,2′,5,6,7,8,9,10,11,13a,14,14a,15,16,16a-hexadecahydrospiro[cyclopropa[e]pyrrolo[1,2-a][1,4]diazacyclopentadecine-2,3′-pyrano[2,3-c]quinolin]-6-yl]carbamate], the EC50 in the experiment on HCV genotype 1b replicon (K+ salt) worked out at 1920 pM. Besides, the IC50 in experiment [1] (K+ salt) is 13 pM.

Take `COc1ccc2nc(C)c3c(c2c1)[C@H](F)C[C@]1(C[C@H]2C(=O)N[C@]4(C(=O)NS(=O)(=O)C5(C)CC5)C[C@H]4/C=C\CCCCC[C@H](NC(=O)OC(C)C(C)(C)C)C(=O)N2C1)O3` (stereo partly drawn) [Example 404, 3,3-dimethylbutan-2-yl [(l′R,2S,6S,12Z,13aS,14aR,16aS)-1′-fluoro-9′-methoxy-5′-methyl-14a-{[(1-methylcyclopropyl)sulfonyl]carbamoyl}-5,16-dioxo-1,1′,2′,5,6,7,8,9,10,11,13a,14,14a,15,16,16a-hexadecahydrospiro[cyclopropa[e]pyrrolo[1,2-a][1,4]diazacyclopentadecine-2,3′-pyrano[2,3-c]quinolin]-6-yl]carbamate]: in the experiment with HCV genotype 1b replicon, the EC50 is 1230 pM. The compound further gave an IC50 in experiment [1] of 18 pM.
